Columns and labels:
[1] = test system: IMR-90 fibroblasts; format: cell-based, human
Method: (§1) Human fetal lung fibroblasts (IMR-90) were cultured in Dulbecco's modified eagle medium (DMEM) supplemented with 10% FBS and penicillin/streptomycin. LL 29 (AnHa) cells were obtained from the ATCC and growth to confluence using the ATCC protocol, but were subcultured as described for IMR-90 before initiation of all experiments. Quiescence was induced by replacing culture media with media containing 0.2% FBS. MCF-7 and MDA-MB-231 breast cancer cells were cultured in RPMI supplemented with 10% FBS and penicillin/streptomycin. All cells were cultured at 3% O2, and used between 25 and 40 population doublings. All cells were mycoplasma free.
RNA was extracted from cells or tissues using commercially available kits (Isolate II—Bioline for cells; Direct-zol—Zymo for tissues) according to the manufacturer's instructions. cDNA synthesis was performed using a High Capacity cDNA Reverse Transcription Kit (Thermo Fisher) according to the manufacturer's instructions. Quantitative PCR was performed on a LightCycler 480 II (Roche) using primers and probes designed for the Universal Probe Library. Primers and probes used for human transcripts were ACTB: 5′-CCAACCGCGAGAAGATGA (SEQ ID NO:1), 5′-TCCATCACGATGCCAGTG (SEQ ID NO:2), Probe #64; TUBA: 5′-cttcgtctccgccatcag (SEQ ID NO:3), 5′-ttgccaatctggacacca (SEQ ID NO:4), Probe #58; ALOX5: 5′-[…] (SEQ ID NO:5), 5′-[…] (SEQ ID NO:6), Probe #64; ALOX5AP: 5′-ggtctgcggggctacttt (SEQ ID NO:7), 5′-[…] (SEQ ID NO:8), Probe #18; ALOX12: 5′-[…] (SEQ ID NO:9), 5′-agccaggtcgtcaggag (SEQ ID NO:10), Probe #32; ALOX15: 5′-[…] (SEQ ID NO:11), 5′-[…] (SEQ ID NO:12), Probe #76; ALOX15B: 5′-[…] (SEQ ID NO:13), 5′-actgggaggcgaagaagg (SEQ ID NO:14), Probe #51; AKR1C1: 5′-catgcctgtcctgggattt (SEQ ID NO:15), 5′-[…] (SEQ ID NO:16), Probe #49; AKR1C2: 5′-ctatgcgcctgcagaggt (SEQ ID NO:17), 5′-[…] (SEQ ID NO:18), Probe #31; AKR1C3: 5′-[…] (SEQ ID NO:19), 5′-[…] (SEQ ID NO:20), Probe #78; CYSLTR2: 5′-[…] (SEQ ID NO:21), 5′-[…] (SEQ ID NO:22), Probe #18; DPEP1: 5′-gacgtcctgaggctggtg (SEQ ID NO:23), 5′-[…] (SEQ ID NO:24), Probe #9 (SEQ ID NO:25), ELOVL2: 5′-[…] (SEQ ID NO:26), 5′-[…] (SEQ ID NO:27), Probe #53; ELOVL4: 5′-catttggcccatggattc (SEQ ID NO:28), 5′-[…] (SEQ ID NO:29), Probe #31; ELOVL5: 5′-cccttccatgcgtccata (SEQ ID NO:30), 5′-[…] (SEQ ID NO:31), Probe #31; EPHX2: 5′-ttctgctggacaccctgaa (SEQ ID NO:32), 5′-[…] (SEQ ID NO:33), Probe #45; GPX4: 5′-ttcccgtgtaaccagttcg (SEQ ID NO:34), 5′-[…] (SEQ ID NO:35), Probe #36; LTA4H: 5′-ctgctctcacggtccagtc (SEQ ID NO:36), 5′-[…] (SEQ ID NO:37), Probe #64; LTBR2: 5′-[…] (SEQ ID NO:38), 5′-[…] (SEQ ID NO:39), Probe #33; LTC4S: 5′-[…] (SEQ ID NO:40), 5′-[…] (SEQ ID NO:41), Probe #18; PTGDS: 5′-[…] (SEQ ID NO:42), 5′-[…] (SEQ ID NO:43), Probe #36; PTGES: 5′-agagatgcctgcccacag (SEQ ID NO:44), 5′-tggccaccacgtacatctt (SEQ ID NO:45), Probe #4; PTGES2: 5′-[…] (SEQ ID NO:46), 5′-[…] (SEQ ID NO:47), Probe #49; PTGES3 (SEQ ID NO:48), 5′-[…] (SEQ ID NO:49), 5′-[…] (SEQ ID NO:50), Probe #48; PTGIS: 5′-[…] (SEQ ID NO:51), 5′-[…] (SEQ ID NO:52), Probe #45; PTGR1: 5′-atgatggggcagcaagtg (SEQ ID NO:53), 5′-cccatcagaaatggagtgc (SEQ ID NO:54), Probe #64; PTGS1: 5′-[…] (SEQ ID NO:55), 5′-gtggtggtccatgttcctg (SEQ ID NO:56), Probe #81; PTGS2: 5′-gatccccagggctcaaac (SEQ ID NO:57), 5′-[…] (SEQ ID NO:58), Probe #61; TBXAS1: 5′-[…] (SEQ ID NO:59), 5′-tgcctcccgtgtgaatct (SEQ ID NO:60), Probe #73; AREG: 5′-[…] (SEQ ID NO:61), 5′-[…] (SEQ ID NO:62), Probe #73; CCL2: 5′-AGTCTCTGCCGCCCTTCT (SEQ ID NO:63), 5′-GTGACTGGGGCATTGATTG (SEQ ID NO:64), Probe #40; CCL27: 5′-[…] (SEQ ID NO:65), 5′-gctgggtggcagtaggaat (SEQ ID NO:66), Probe #18; CXCL1: 5′-[…] (SEQ ID NO:67), 5′-[…] (SEQ ID NO:68), Probe #52; HGF: 5′-[…] (SEQ ID NO:69), 5′-[…]

[2] = test system: IL-6 secretion in senescent cells; test: IL-6 ELISA on conditioned media of IR-induced senescent cells treated with COX-2/ALOX5 inhibitors; format: cell-based, human; details: SEN(IR) IMR-90, inhibitor for 10 days
Method: as §1
Senescence was induced by irradiation with 10 Gy of ionizing radiation. Non-senescent controls (proliferating or quiescent) were placed in the irradiator for an identical period of time without turning on the irradiator. Oncogene-induced senescence was induced via lentiviral overexpression of HRAS^V12, as described previously (Wiley et al. (2016) Cell Metab. 23: 303-314).
3×10^4 cells in 12-well plates were treated as indicated in the text, and cultured in 0.5-1 ml serum-free DMEM for 24 hr. CM were collected and clarified at 2,000×g for 10 min. Supernatants were transferred to a tube; cells were trypsinized and counted. CM (2.5 μl) were analyzed by bead-based ELISAs (AlphaLISA, Perkin-Elmer) as instructed by the manufacturer and normalized to cell number.

How did the “growth of non-senescent cells” value [1] turn out when `CC(/C=C/c1cccc(Oc2ccc(F)cc2)c1)N(O)C(N)=O` (centres unmarked) [BW-B70C] was run?
The value was “retarded growth”.

What about the “lowered IL-6 secretion in senescent cells” value [2] of the same compound?
Its value is about 50%.

— patent publication US20200371122A1, “BIOMARKER FOR SENESCENT CELLS” (Buck Institute for Research on Aging, priority 2017, published 2020)
